Results: ChEMBL document CHEMBL1201862, “PubChem BioAssay data set” (2004)
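Step 1: Grow cells in 96-well plates. Step 2: Expose to compound for 48 hours at 5 concentrations. Step 3: Interpolate endpoints linearly; if unreached, use highest concentration. At the GI50, growth is halved.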 Activity calls are given as the source filed them. No stated cut-off is given here; in the data, active = GI50 up to about 1.1 µM and inactive = higher.

What was measured:
Test in all cases: NCI-60 cell line screen, 48 h
[1] = test system: Malme-3M
[2] = test system: HT-29
[3] = test system: OVCAR-3
[4] = test system: SK-MEL-5
[5] = test system: SF-268
[6] = test system: SK-MEL-2
[7] = test system: IGROV-1
[8] = test system: OVCAR-8
[9] = test system: A549
[10] = test system: LOX IMVI
[11] = test system: CCRF-CEM
[12] = test system: SR
[13] = test system: SNB-19
[14] = test system: NCI-H23
[15] = test system: M14
[16] = test system: 786-0
[17] = test system: MCF7
[18] = test system: HCC 2998
[19] = test system: HL-60
[20] = test system: EKVX
[21] = test system: HCT-15
[22] = test system: UACC-257
[23] = test system: SF-539
[24] = test system: ACHN
[25] = test system: PC-3
[26] = test system: BT-549
[27] = test system: SK-MEL-28
[28] = test system: OVCAR-5
[29] = test system: MDA-MB-435
[30] = test system: RXF 393
[31] = test system: NCI-H226
[32] = test system: Hs-578T
[33] = test system: SK-OV-3
[34] = test system: UO-31
[35] = test system: SN12C
[36] = test system: RPMI-8226
[37] = test system: TK-10
[38] = test system: SNB-75
[39] = test system: OVCAR-4
[40] = test system: SW-620
[41] = test system: SF-295
[42] = test system: U-251
[43] = test system: NCI-H460
[44] = test system: NCI/ADR-RES
[45] = test system: HOP-62
[46] = test system: UACC-62
[47] = test system: KM12
[48] = test system: K562
[49] = test system: MOLT-4
[50] = test system: HOP-92
[51] = test system: DU-145
[52] = test system: COLO 205
[53] = test system: MDA-MB-231
[54] = test system: NCI-H522
[55] = test system: HCT-116
[56] = test system: MDA-N
[57] = test system: CAKI-1
[58] = test system: A498

CCc1nc(Cl)c(Cl)c(Cl)n1
GI50 [1]: > 100 µM (inactive)
GI50 [2]: > 100 µM (inactive)
GI50 [3]: > 100 µM (inactive)
GI50 [4]: > 100 µM (inactive)
GI50 [5]: > 100 µM (inactive)
GI50 [6]: > 100 µM (inactive)
GI50 [7]: > 100 µM (inactive)
GI50 [8]: > 100 µM (inactive)
GI50 [9]: > 100 µM (inactive)
GI50 [10]: > 100 µM (inactive)
GI50 [11]: > 100 µM (inactive)
GI50 [12]: > 100 µM (inactive)
GI50 [13]: > 100 µM (inactive)
GI50 [14]: > 100 µM (inactive)
GI50 [15]: > 100 µM (inactive)
GI50 [16]: > 100 µM (inactive)
GI50 [17]: > 100 µM (inactive)
GI50 [18]: > 100 µM (inactive)
GI50 [19]: > 100 µM (inactive)
GI50 [20]: > 100 µM (inactive)
GI50 [21]: > 100 µM
GI50 [22]: > 100 µM (inactive)
GI50 [23]: > 100 µM (inactive)
GI50 [24]: > 100 µM (inactive)
GI50 [25]: > 100 µM (inactive)
GI50 [26]: > 100 µM (inactive)
GI50 [27]: > 100 µM (inactive)
GI50 [28]: > 100 µM (inactive)
GI50 [29]: > 100 µM (inactive)
GI50 [30]: > 100 µM (inactive)
GI50 [31]: > 100 µM (inactive)
GI50 [32]: > 100 µM (inactive)
GI50 [33]: > 100 µM (inactive)
GI50 [34]: > 100 µM (inactive)
GI50 [35]: > 100 µM (inactive)
GI50 [36]: > 100 µM (inactive)
GI50 [37]: > 100 µM (inactive)
GI50 [38]: 0.242 µM (active)
GI50 [39]: > 100 µM (inactive)
GI50 [40]: > 100 µM (inactive)
GI50 [41]: > 100 µM (inactive)
GI50 [42]: > 100 µM (inactive)
GI50 [43]: > 100 µM (inactive)
GI50 [44]: > 100 µM (inactive)
GI50 [45]: > 100 µM (inactive)
GI50 [46]: > 100 µM (inactive)
GI50 [47]: > 100 µM (inactive)
GI50 [48]: > 100 µM (inactive)
GI50 [49]: > 100 µM (inactive)

Cc1ccc(-c2nc(Cc3n[nH]c(-c4ccc(C)cc4)n3)n[nH]2)cc1
GI50 [2]: > 100 µM (inactive)
GI50 [3]: > 100 µM (inactive)
GI50 [4]: > 100 µM (inactive)
GI50 [5]: 6.14 µM (inactive)
GI50 [6]: > 100 µM (inactive)
GI50 [7]: > 100 µM (inactive)
GI50 [8]: 10.3 µM (inactive)
GI50 [50]: > 100 µM (inactive)
GI50 [9]: > 100 µM (inactive)
GI50 [10]: > 100 µM (inactive)
GI50 [11]: > 100 µM (inactive)
GI50 [13]: 44.2 µM (inactive)
GI50 [14]: 18.3 µM (inactive)
GI50 [15]: > 100 µM (inactive)
GI50 [51]: > 100 µM (inactive)
GI50 [52]: > 100 µM (inactive)
GI50 [16]: > 100 µM (inactive)
GI50 [17]: > 100 µM (inactive)
GI50 [18]: > 100 µM (inactive)
GI50 [53]: > 100 µM (inactive)
GI50 [20]: > 100 µM (inactive)
GI50 [21]: > 100 µM
GI50 [22]: > 100 µM (inactive)
GI50 [23]: > 100 µM (inactive)
GI50 [24]: 6.38 µM (inactive)
GI50 [25]: > 100 µM (inactive)
GI50 [26]: > 100 µM (inactive)
GI50 [27]: > 100 µM (inactive)
GI50 [28]: > 100 µM (inactive)
GI50 [29]: > 100 µM (inactive)
GI50 [30]: 21.1 µM (inactive)
GI50 [33]: > 100 µM (inactive)
GI50 [34]: > 100 µM (inactive)
GI50 [54]: 2.99 µM (inactive)
GI50 [35]: > 100 µM (inactive)
GI50 [55]: 36.1 µM (inactive)
GI50 [36]: > 100 µM (inactive)
GI50 [37]: > 100 µM (inactive)
GI50 [38]: 3.2 µM (inactive)
GI50 [39]: 3.75 µM (inactive)
GI50 [40]: > 100 µM (inactive)
GI50 [41]: > 100 µM (inactive)
GI50 [42]: 3.71 µM (inactive)
GI50 [44]: 29.6 µM (inactive)
GI50 [56]: > 100 µM (inactive)
GI50 [45]: 29 µM (inactive)
GI50 [46]: 4.86 µM (inactive)
GI50 [47]: > 100 µM (inactive)
GI50 [48]: > 100 µM (inactive)
GI50 [49]: > 100 µM (inactive)

COc1cc(/C=C2/Oc3c(OC)cccc3C2=O)ccc1O
GI50 [2]: 52.4 µM (inactive)
GI50 [3]: 61.2 µM (inactive)
GI50 [4]: 34.8 µM (inactive)
GI50 [5]: > 100 µM (inactive)
GI50 [6]: > 100 µM (inactive)
GI50 [7]: 64.6 µM (inactive)
GI50 [8]: > 100 µM (inactive)
GI50 [50]: > 100 µM (inactive)
GI50 [9]: > 100 µM (inactive)
GI50 [10]: 84.5 µM (inactive)
GI50 [11]: 60.1 µM (inactive)
GI50 [12]: 29.9 µM (inactive)
GI50 [13]: 91 µM (inactive)
GI50 [14]: > 100 µM (inactive)
GI50 [15]: 30.8 µM (inactive)
GI50 [51]: 49.1 µM (inactive)
GI50 [52]: 45.8 µM (inactive)
GI50 [16]: 76.4 µM (inactive)
GI50 [17]: > 100 µM (inactive)
GI50 [18]: 48.4 µM (inactive)
GI50 [53]: > 100 µM (inactive)
GI50 [19]: 36.6 µM (inactive)
GI50 [20]: 46.9 µM (inactive)
GI50 [21]: 24.3 µM
GI50 [22]: > 100 µM (inactive)
GI50 [24]: 63.7 µM (inactive)
GI50 [25]: 43.9 µM (inactive)
GI50 [26]: > 100 µM (inactive)
GI50 [27]: > 100 µM (inactive)
GI50 [28]: > 100 µM (inactive)
GI50 [29]: 52.5 µM (inactive)
GI50 [30]: 90.2 µM (inactive)
GI50 [31]: 76 µM (inactive)
GI50 [32]: > 100 µM (inactive)
GI50 [33]: 92 µM (inactive)
GI50 [34]: 63 µM (inactive)
GI50 [54]: 24.7 µM (inactive)
GI50 [35]: > 100 µM (inactive)
GI50 [55]: 76.9 µM (inactive)
GI50 [36]: 53.2 µM (inactive)
GI50 [37]: > 100 µM (inactive)
GI50 [38]: 41.8 µM (inactive)
GI50 [57]: 36.5 µM (inactive)
GI50 [39]: > 100 µM (inactive)
GI50 [40]: > 100 µM (inactive)
GI50 [41]: 54 µM (inactive)
GI50 [42]: > 100 µM (inactive)
GI50 [43]: 32.4 µM (inactive)
GI50 [44]: > 10 µM (inactive)
GI50 [56]: > 100 µM (inactive)
GI50 [45]: 83.8 µM (inactive)
GI50 [46]: > 100 µM (inactive)
GI50 [47]: 88.5 µM (inactive)
GI50 [58]: 94 µM (inactive)
GI50 [48]: > 100 µM (inactive)
GI50 [49]: 50.4 µM (inactive)
